Laboratory results from patent publication US5039797A, “2'-O-(4-benzoyl)benzoyl nucleoside cyclic monophosphate” (Yale University, priority 1989, dated 1991).
Read-outs that look alike come from different tables or passages of the source. Blank lines part the entries; values can stand above or below the compound they belong to.

What was measured:
[1] = tested on: platelet phosphodiesterase; test: Inhibition of platelet phosphodiesterase activity (H3-cAMP hydrolysis); type: biochemical; conditions: 5 minutes at 30° C, platelet preparations
Procedure: The IC50 's for 2'-0-(4-benzoyl)benzoyl guanosine 3',5'cyclic monophosphate and 2'-0-(4-benzoyl)benzoyl cyclic adenosine monophosphate were 3 and 10 μM, repsectively. Enzyme activity was assayed by incubation of platelet preparations with H^3 -cAMP for 5 minutes at 30° C. Activity was quenched by boiling the assay tubes for 1 minute. Each sample was run in triplicate. Analysis of H^3 -cAMP was performed according to the procedure of W. J. Thompson, W. L. Terasaki, P. M. Epstein and S. J. Strada, "Assay of Cyclic Nucleotide Phosphodiesterase and Resolution of Multiple Molecular Forms of the Enzyme", Adv. in Cyclic Nucleotide Research, 10, 69-92 (1979).

cAMP PDE = test: Inhibition of cAMP phosphodiesterase in rat bladder; type: biochemical; conditions: read-out: IC50, concentration required to cause 50% inhibition of the enzyme
Procedure: (§1) 2'-0-(4-benzoyl)benzoyl guanosine 3',5' cyclic monophosphate was assayed as an inhibitor of the cGMP and cAMP phoosphodiesterases in rat bladder. The inhibition of the two PDEases were assayed as per J. N. Wells, C. E. Baird, Y. J. Wu and J. G. Hardman, Biochem. Biophys. Acta, 384, 430, (1975). Expressed as IC50 's, the concentration required to cause 50% inhibition of the enzynme were as follows: […]

Solubility in solvents = type: physicochemical; conditions: dmso, organic solvent or mixture; in water, ethanol or methanol and DSMO; read-out: upper limit of solubility
Procedure: The inventive compound favors organic solvents; the upper limit of solubility in water, ethanol or methanol and DSMO is approximately 100 mM. Butanol is also a good solvent, but probably not a very good vehicle.

eye = test: Ocular tolerability in rabbits after topical administration; type: in vivo, rabbit
[2] = target: Type III cGMP phosphodiesterase; test: Lineweaver-Burke analysis of cGMP hydrolysis by toad photoreceptor rod outer segment membranes; type: biochemical
Procedure: FIG. 7 depicts a Lineweaver-Burke analysis of inhibitory effectiveness of 2'-0-(4-benzoyl)benzoyl guanosine 3',5'cyclic monophosphate versus 8-Br-cGMP. The data illustrated are cGMP hydrolysis velocities from toad photoreceptor rod outer segment membranes containing 20 nM Type III cGMP phosphodiesterase in the presence of 100 mM NaCl, 1 mM Tris-HCl, 1 MgCl2,20 μM p[NH]ppG (guanylylimididiphosphate), pH 7.4, and the indicated concentrations of substrate. Open squares indicate control velocities. […] Open circles and open triangles show the effect of 2 μM and 20uM 2'-0-(4-benzoyl)benzoyl guanosine 3',5'cyclic monophosphate respectively (Ki =0.3 μM).

[3] = Storage stability in DMSO; type: physicochemical; conditions: stored at -20° C
Excerpt: No preservative need be added.

cGMP PDE = test: Inhibition of cGMP phosphodiesterase in rat bladder; type: biochemical; conditions: read-out: IC50, concentration required to cause 50% inhibition of the enzyme
Procedure: as §1

intraocular pressure = test: Intraocular pressure in normal rabbits after topical administration; type: in vivo, rabbit
Excerpt: Non-pigmented, normal (non-water-loaded) rabbits received topical administration to their eyes of 2'-0-(4)-benzoyl benzoyl guanosine 3',5'cyclic monophosphate as prepared according to Example 1.
The mean baseline IOP (intraocular pressure) for the rabbits was 17.5 mm Hg. It should be noted that the data presented in FIG. 1 and FIG. 2 are relative to time zero and normalized relative to the contralateral eye. The contralateral eye received a DMSO control lacking the inhibitor compound. It is believed that this is the most conservative way to represent the data.
Additionally, five rabbits were administered 2'-0-(4-benzoyl)benzoyl guanosine 3',5'cyclic monophosphate (and DMSO) in a sterile saline solution diluted 10- and 100-fold.
FIG. 1 depicts the results of increasing concentrations of 2'-0-(4-benzoyl)benzoyl guanosine 3',5' cyclic monophosphate on the intraocular pressure of normal rabbits. Pressures (±S.E.M) are relative to pressure at time zero and normalized with respect to that of the contralateral eye. Contralateral eyes received solutions containing (DMSO) vehicle without 2'-0-(4-benzoyl)benzoyl guanosine 3',5'cyclic monophosphate. […] Intraocular pressure was measured by applanation tonometry (using an Alcon Applanation Pneumotonograph) after topical application of proparacaine HCl […].

[4] = target: T1, Rod Light-Activated PDEase (Bos taurus, UniProt P11541+P23439)
T1 sequence (P11541 1-859): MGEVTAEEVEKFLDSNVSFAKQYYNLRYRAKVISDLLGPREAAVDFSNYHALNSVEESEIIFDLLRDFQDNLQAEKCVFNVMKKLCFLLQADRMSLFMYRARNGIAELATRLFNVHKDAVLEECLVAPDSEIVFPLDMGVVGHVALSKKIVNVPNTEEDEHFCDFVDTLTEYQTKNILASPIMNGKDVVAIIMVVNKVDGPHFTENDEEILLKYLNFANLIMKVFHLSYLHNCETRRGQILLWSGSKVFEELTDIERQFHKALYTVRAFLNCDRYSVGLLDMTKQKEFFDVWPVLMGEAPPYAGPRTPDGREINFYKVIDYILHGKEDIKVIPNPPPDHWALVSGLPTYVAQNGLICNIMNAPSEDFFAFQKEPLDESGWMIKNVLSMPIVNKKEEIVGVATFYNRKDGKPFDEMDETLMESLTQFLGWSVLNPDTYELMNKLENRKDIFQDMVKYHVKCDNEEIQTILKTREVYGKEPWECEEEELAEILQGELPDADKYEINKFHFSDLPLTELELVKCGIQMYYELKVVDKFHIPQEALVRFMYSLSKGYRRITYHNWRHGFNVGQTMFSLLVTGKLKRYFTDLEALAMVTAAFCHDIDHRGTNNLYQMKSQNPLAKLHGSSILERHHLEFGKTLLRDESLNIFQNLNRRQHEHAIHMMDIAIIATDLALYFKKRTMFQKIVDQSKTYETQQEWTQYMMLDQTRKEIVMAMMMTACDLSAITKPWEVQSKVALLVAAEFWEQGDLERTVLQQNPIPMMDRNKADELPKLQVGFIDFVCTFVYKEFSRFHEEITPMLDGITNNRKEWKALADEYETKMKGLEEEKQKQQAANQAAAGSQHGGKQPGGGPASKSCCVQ
T1 sequence (P23439 1-853): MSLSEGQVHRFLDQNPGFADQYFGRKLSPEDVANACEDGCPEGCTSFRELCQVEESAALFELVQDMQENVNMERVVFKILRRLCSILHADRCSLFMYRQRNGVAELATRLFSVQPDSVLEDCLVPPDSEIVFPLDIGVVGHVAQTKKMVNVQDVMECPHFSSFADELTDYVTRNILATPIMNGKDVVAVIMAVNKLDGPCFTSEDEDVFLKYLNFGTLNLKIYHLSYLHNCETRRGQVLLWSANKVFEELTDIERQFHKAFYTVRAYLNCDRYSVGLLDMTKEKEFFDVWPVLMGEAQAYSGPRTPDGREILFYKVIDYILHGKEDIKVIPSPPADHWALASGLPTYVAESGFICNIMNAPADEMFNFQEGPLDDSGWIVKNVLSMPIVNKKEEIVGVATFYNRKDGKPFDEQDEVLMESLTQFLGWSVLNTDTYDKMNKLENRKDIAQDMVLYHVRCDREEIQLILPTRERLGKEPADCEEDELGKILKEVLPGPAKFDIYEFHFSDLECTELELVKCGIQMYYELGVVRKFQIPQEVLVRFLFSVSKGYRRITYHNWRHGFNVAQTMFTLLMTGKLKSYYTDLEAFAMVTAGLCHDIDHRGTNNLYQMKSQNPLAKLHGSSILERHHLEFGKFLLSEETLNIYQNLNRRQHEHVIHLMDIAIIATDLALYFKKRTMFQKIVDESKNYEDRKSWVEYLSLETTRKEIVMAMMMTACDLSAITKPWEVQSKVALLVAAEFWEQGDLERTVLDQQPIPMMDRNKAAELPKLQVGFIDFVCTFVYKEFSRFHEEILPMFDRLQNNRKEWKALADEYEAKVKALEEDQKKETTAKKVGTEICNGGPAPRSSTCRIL

[5] = 20 nM enzyme, 100 mM NaCl, 20 μM p[NH]ppG, pH 7.4, Ki calculated from slope/Km ratios, read-out: Ki
[6] = footnote a: from Zimmerman et al 1985; read-out: Ki for Inhibition; cited from earlier work
[7] = footnote b: interpolated from Pannbacker et al 1972 and Chader et al 1974; read-out: Ki for Inhibition; cited from earlier work

IC50 [1]: 10 µM
SMILES: Nc1ncnc2c1ncn2[C@@H]1O[C@@H]2COP(=O)(O)O[C@H]2[C@H]1OC(=O)c1ccc(C(=O)c2ccccc2)cc1 [2'-0-(4-benzoyl) benzoyl-adenosine 3',5' cyclic monophosphate]

IC50 (cAMP PDE): 15.8 µM
solubility (Solubility in solvents): ~100 mM
Ki [2, 5]: 0.3 µM
Ki ([2]; Table 1, rod light-activated PDEase, inventive compound, read-out: Ki for Inhibition): 0.3 µM
stability in solution [3]: does not degrade
IC50 [1]: 3 µM
IC50 (cGMP PDE): 0.5 µM
SMILES: Nc1nc2c(ncn2[C@@H]2O[C@@H]3COP(=O)(O)O[C@H]3[C@H]2OC(=O)c2ccc(C(=O)c3ccccc3)cc2)c(=O)[nH]1 [2'-0-(4-benzoyl)benzoylguanosine 3',5'cyclic monophosphate]
conjunctival hyperemia (eye; compound (and DMSO) diluted ten-fold with saline solution): reduced
change in pupil diameter (eye; either eye, any concentration, topical): No significant change in pupil diameter
conjunctival hyperemia (eye; full concentration (in straight DMSO)): slight conjunctival hyperemia
lid erythema or ciliary injection (eye; topical): no lid erythema or ciliary injection were observed
effect on IOP (intraocular pressure; 10-fold diluted material (approximately 3 mM), compared with 35 mM in DMSO): about the same effect on IOP
effect on IOP (intraocular pressure; 100-fold diluted compound (approximately 0.3 mM)): essentially no effect

SMILES: Nc1nc2c(ncn2[C@@H]2O[C@@H]3COP(O)(=S)O[C@H]3[C@H]2O)c(=O)[nH]1 (some centres unmarked) [(Rp)-cGMP [S]]
Ki [4, 6]: 90 µM

SMILES: CCCC(=O)Nc1nc2c(ncn2[C@@H]2O[C@@H]3COP(=O)(O)O[C@H]3[C@H]2O)c(=O)[nH]1 [N^2 -monobutyryl-cGMP]
Ki [4, 6]: 258 µM

SMILES: CCCC(=O)O[C@@H]1[C@@H]2OP(=O)(O)OC[C@H]2O[C@H]1n1cnc2c(=O)[nH]c(N)nc21 [O^2,-monobutyryl-cGMP]
Ki [4, 6]: 18 µM

SMILES: CCCC(=O)Nc1nc2c(ncn2[C@@H]2O[C@@H]3COP(=O)(O)O[C@H]3[C@H]2OC(=O)CCC)c(=O)[nH]1 [N^2,O^2,-dibutyryl-cGMP]
Ki [4, 6]: 66 µM

SMILES: Nc1nc2c(ncn2[C@H]2C[C@@H]3OP(=O)(O)OC[C@H]3O2)c(=O)[nH]1 [2'-Deoxy-cGMP]
Ki [4, 6]: 76 µM

SMILES: COc1ccc(Cc2nccc3cc(OC)c(OC)cc23)cc1OC [Papaverine]
Ki [4, 7]: ~50 µM

SMILES: Cn1c(=O)c2[nH]cnc2n(C)c1=O [Theophyline]
Ki [4, 7]: ~360 µM

SMILES: Nc1nc2c(ncn2[C@@H]2O[C@@H]3COP(O)(=S)O[C@H]3[C@H]2O)c(=O)[nH]1 (some centres unmarked) [(Sp)-cGMP [S]]
Ki [4, 6]: 25 µM

SMILES: CC(C)Cn1c(=O)n(C)c(=O)c2[nH]cnc21 [Isobutylmethylxanthine]
Ki ([4]; read-out: Ki for Inhibition; footnote b: interpolated from Pannbacker et al 1972 and Chader et al 1974; cited from earlier work): ~100 µM

Ki [2, 5]: 6 µM
SMILES: Nc1nc(O)c2nc(Br)n([C@@H]3O[C@@H]4COP(=O)(O)O[C@H]4[C@H]3O)c2n1 [Example 8-Br-cGMP, 8-Br-3',5' cyclic guanosine monophosphate, reference compound]
Ki [4, 6]: 48 µM

SMILES: Nc1nc2c(ncn2[C@@H]2O[C@@H]3COP(=O)(O)O[C@H]3[C@H]2O)c(=O)[nH]1 [cGMP, 3',5'cyclic guanosine monophosphate]
Km ([4]; substrate cGMP; from Zimmerman et al 1985; read-out: Km (printed in column Ki for Inhibition); cited from earlier work): 0.04 mM
